Measurements published in patent publication US7772227B2, “Tricyclic 1-[(indol-3-yl)carbonyl]piperazine derivatives as cannabinoid CB1 receptor agonists” (N.V. Organon, priority 2003, dated 2010).
Structures can show the parent of a compound that is named as a salt. Where two headings read alike, the source gives them in different places.

Legend:
human CB1 receptor = target: T1, human CB1 receptor (Homo sapiens, UniProt P21554); assay: Efficacy and potency at the human CB1 receptor expressed in CHO cells (luciferase reporter gene); format: cell-based; details: 5 h incubation at 37° C.
T1 construct: expressed in transfected cells; host or cells: Chinese Hamster Ovary (CHO) cells
T1 sequence (P21554 whole entry): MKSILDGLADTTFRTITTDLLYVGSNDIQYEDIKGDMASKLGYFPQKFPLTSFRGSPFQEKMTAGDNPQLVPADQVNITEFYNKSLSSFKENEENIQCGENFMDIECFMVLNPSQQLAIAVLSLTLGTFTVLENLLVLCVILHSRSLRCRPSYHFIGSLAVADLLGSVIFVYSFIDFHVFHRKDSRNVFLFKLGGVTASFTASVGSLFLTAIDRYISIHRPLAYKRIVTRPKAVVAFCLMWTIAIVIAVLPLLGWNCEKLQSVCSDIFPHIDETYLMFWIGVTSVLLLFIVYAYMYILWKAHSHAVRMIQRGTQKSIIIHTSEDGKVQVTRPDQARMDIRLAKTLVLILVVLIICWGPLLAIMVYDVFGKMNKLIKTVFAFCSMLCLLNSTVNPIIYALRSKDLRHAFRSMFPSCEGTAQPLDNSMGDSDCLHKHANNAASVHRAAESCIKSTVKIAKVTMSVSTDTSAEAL
Experimental: Methods to determine receptor binding as well as in vitro biological activity of cannabinoid receptor modulators are well known in the art. In general, expressed receptor is contacted with the compound to be tested and binding or stimulation or inhibition of a functional response is measured.
Chinese Hamster Ovary (CHO) cells expressing the human CB1 receptor and a luciferase reporter gene were suspended in phenol red/serum free DMEM/F-12 nut mix containing penicillin/streptomycin (50 U/50 μg/ml) and fungizone (1 μg/ml) and seeded into 96 well plates at a density of 3×10^4 cells per well (100 μl final volume). Cells were incubated overnight (approx. 18 h at 37° C., 5% CO2/95% air) prior to assay.
The test compound (10 mM solution in dimethylsulfoxide) was diluted in F12 Nut Mix to give a range of stock solutions from 0.11 mM to 0.11 nM. The stock solutions (10 μl) were added directly to the relevant wells. The plates were incubated at 37° C. for 5 h to allow agonist-induced expression of the luciferase enzyme. Under subdued light, LucLite substrate (Packard; reconstituted as per manufacturer's instructions; 100 μl) was added to each well. Plates were covered with Top Seal and then incubated at room temperature for 5 minutes before counting on the Packard TopCount (single photon counting, 0.01 minute count time, 5 minute count delay).
A “best-fit” curve was fitted by a minimum sum of squares method to the plot of counts per second (CPS) against compound concentration (M) to obtain an EC50 value.

mice = assay: Tail flick latency in mice; format: in vivo; details: Mus musculus, iv, administered intravenously, ED50 calculated at Tmax, read-out: ED50 (increase of tail flick latency)
Experimental: Mice were trained to sit still in a tail flick apparatus (Ugo Basile, Italy) whilst tail flick latency was measured. The tail was exposed to a focused beam of radiant heat at a point approximately 2.5 cm from the tip. Tail flick latency was defined as the interval between the appliance of the thermal stimulus and withdrawal of the tail. A 12 second cut-off was employed to prevent tissue damage. Four groups of eight mice were treated with vehicle or one of three doses of the test compound, administered intravenously (vehicle: saline 9 g/l; injection volume 10 ml/kg). Tail flick latency was measured before administration of the test compound and at regular intervals (typically 20, 40 and 60 minutes) after compound administration. The ED50 was calculated at Tmax.

[1] = CHO cells expressing human CB1 receptor and luciferase reporter gene
[2] = CHO cells expressing human CB1 receptor and luciferase reporter gene, read-out: pEC50 (converted)

Structure (SMILES): C[C@H]1CN(C(=O)c2cn3c4c(cccc24)OC[C@H]3C2CCCCC2)CCN1C.Cl [Example 4, (R)-3-Cyclohexyl-2,3-dihydro-6-[(S)-3,4-dimethylpiperazin-1-ylcarbonyl]pyrrolo[1,2,3-de]-1,4-benzoxazine hydrochloride salt]
- pEC50 (human CB1 receptor; [1]): 7.8
- ED50 (mice): < 5 µmol/kg

Structure (SMILES): C[C@@H]1CN(C(=O)c2cn3c4c(cccc24)OC[C@H]3C2CCCCC2)C[C@H](C)N1CCO.Cl [Example 9, (R)-3-Cyclohexyl-2,3-dihydro-6-[(cis)-3,5-dimethyl-4-(2-hydroxyethyl)piperazin-1-ylcarbonyl]pyrrolo[1,2,3-de]-1,4-benzoxazine hydrochloride salt]
- pEC50 (human CB1 receptor; [1]): 8.2

Structure (SMILES): CN1CCN(C(=O)c2cn3c4c(cccc24)CCC3C2CCCCC2)CC1 (single isomer, unassigned; (-)) [Example 16, (−)-(4-Cyclohexyl-5,6-dihydro-1-(4-methylpiperazin-1-ylcarbonyl)-4H-pyrrolo[3,2,1-ij]-quinoline hydrochloride salt]
- EC50 (human CB1 receptor; [2]): 25.1 nM

Structure (SMILES): CCN1CCN(C(=O)c2cn3c4c(cccc24)OC[C@H]3C2CCCCC2)CC1.Cl [Example 1, (R)-3-Cyclohexyl-2,3-dihydro-6-(4-ethylpiperazin-1-ylcarbonyl)pyrrolo[1,2,3-de]-1,4-benzoxazine hydrochloride salt]
- pEC50 (human CB1 receptor; [1]): 7.5

Structure (SMILES): CN1CCN(C(=O)c2cn3c4c(cccc24)OC[C@H]3C2CCCCC2)CC1.Cl [Example 5C, (R)-3-Cyclohexyl-2,3-dihydro-6-[4-methylpirerazin-1-ylcarbonyl]pyrrolo[1,2,3-de]-1,4-benzoxazine hydrochloride salt]
- pEC50 (human CB1 receptor; [1]): 7.0

Structure (SMILES): CCN1[C@H](C)CN(C(=O)c2cn3c4c(cccc24)OC[C@H]3C2CCCCC2)C[C@@H]1C.Cl [Example 8, (R)-3-Cyclohexyl-2,3-dihydro-6-[(cis)-3,5-dimethyl-4-ethylpiperazin-1-ylcarbonyl]-pyrrolo[1,2,3-de]-1,4-benzoxazine hydrochloride salt]
- pEC50 (human CB1 receptor; [1]): 8.4

Structure (SMILES): COCCN1[C@H](C)CN(C(=O)c2cn3c4c(cccc24)OC[C@H]3C2CCCCC2)C[C@@H]1C.Cl [Example 10, (R)-3-Cyclohexyl-2,3-dihydro-6-[(cis)-3,5-dimethyl-4-(2-methoxyethyl)piperazin-1-yl-carbonyl]pyrrolo[1,2,3-de]-1,4-benzoxazine hydrochloride salt]
- pEC50 (human CB1 receptor; [1]): 8.3

Structure (SMILES): CN1CCN(C(=O)c2cn3c4c(cccc24)CCC3C2CCCCC2)CC1 (single isomer, unassigned; (+)) [Example 14, (+)-(4-Cyclohexyl-5,6-dihydro-1-(4-methylpiperazin-1-ylcarbonyl)-4H-pyrrolo[3,2,1-ij]-quinoline hydrochloride salt]
- EC50 (human CB1 receptor; [2]): 79.4 nM
- ED50 (mice): < 5 µmol/kg

Structure (SMILES): C[C@@H]1CN(C(=O)c2cn3c4c(cccc24)OC[C@H]3C2CCCCC2)C[C@H](C)N1C.Cl [Example 7, (R)-3-Cyclohexyl-2,3-dihydro-6-[(cis)-3,4,5-trimethylpiperazin-1-ylcarbonyl]pyrrolo[1,2,3-de]-1,4-benzoxazine hydrochloride salt]
- pEC50 (human CB1 receptor; [1]): 8.2

Structure (SMILES): CCN1CCN(C(=O)c2cn3c4c(cccc24)CCC3C2CCCCC2)CC1 (single isomer, unassigned; (+)) [Example 13, (+)-4-Cyclohexyl-5,6-dihydro-1-(4-ethylpiperazin-1-ylcarbonyl)-4H-pyrrolo[3,2,1-ij]-quinoline hydrochloride salt]
- EC50 (human CB1 receptor; [2]): 50.1 nM

Structure (SMILES): CCN1CCN(C(=O)c2cn3c4c(cccc24)CCC3C2CCCC2)CC1 (single isomer, unassigned; (-)) [Example 12B, (−)-4-Cylclopentyl-5,6-dihydro-1-(4-ethylpiperazin-1-ylcarbonyl)-4H-pyrrolo[3,2,1-ij]quinoline hydrochloride salt]
- EC50 (human CB1 receptor; [2]): 39.8 nM

Structure (SMILES): O=C(c1cn2c3c(cccc13)OC[C@H]2C1CCCCC1)N1CCN2CCCC[C@H]2C1 [Example 2, (R)-3-Cyclohexyl-2,3-dihydro-6-[(S)-octahydro-2H-pyrido[1,2-a]pyrazin-2-ylcarbonyl]-pyrrolo[1,2,3-de]-1,4-benzoxazine hydrochloride salt]
- EC50 (human CB1 receptor; pEC50, CHO cells expressing human CB1 receptor and luciferase reporter gene): 10 nM
- ED50 (mice): < 5 µmol/kg

Structure (SMILES): CCN1CCN(C(=O)c2cn3c4c(cccc24)CCC3C2CCCCC2)CC1 (single isomer, unassigned; (-)) [Example 15, (−)-(4-Cyclohexyl-5,6-dihydro-1-(4-ethylpiperazin-1-ylcarbonyl)-4H-pyrrolo[3,2,1-ij]quinoline hydrochloride salt]
- EC50 (human CB1 receptor; [2]): 31.6 nM
- ED50 (mice): < 5 µmol/kg
